Here are results for two compounds from ChEMBL document CHEMBL5678818, “Discovery of potent SOS1 inhibitors that block RAS activation via disruption of the RAS-SOS1 interaction” (Proc Natl Acad Sci U S A, 2019).

Test [1] relates to Receptor-type tyrosine-protein kinase FLT3 (Homo sapiens), P36888 [UNDEFINED MUTATION]. Kind of test: Inhibition of FLT3 ITD/F691L mutant (unknown origin) assessed as residual activity at 1000 nM by KINOMEscan analysis relative to control.
In test [2] the target is Serine/threonine-protein kinase 38-like (Homo sapiens) (UniProt Q9Y2H1). Briefly: Inhibition of NDR2 (unknown origin) assessed as residual activity at 100 nM by KINOMEscan analysis relative to control.
Serine/threonine-protein kinase 38-like (Homo sapiens), sequence (Q9Y2H1 2-464 limits assumed): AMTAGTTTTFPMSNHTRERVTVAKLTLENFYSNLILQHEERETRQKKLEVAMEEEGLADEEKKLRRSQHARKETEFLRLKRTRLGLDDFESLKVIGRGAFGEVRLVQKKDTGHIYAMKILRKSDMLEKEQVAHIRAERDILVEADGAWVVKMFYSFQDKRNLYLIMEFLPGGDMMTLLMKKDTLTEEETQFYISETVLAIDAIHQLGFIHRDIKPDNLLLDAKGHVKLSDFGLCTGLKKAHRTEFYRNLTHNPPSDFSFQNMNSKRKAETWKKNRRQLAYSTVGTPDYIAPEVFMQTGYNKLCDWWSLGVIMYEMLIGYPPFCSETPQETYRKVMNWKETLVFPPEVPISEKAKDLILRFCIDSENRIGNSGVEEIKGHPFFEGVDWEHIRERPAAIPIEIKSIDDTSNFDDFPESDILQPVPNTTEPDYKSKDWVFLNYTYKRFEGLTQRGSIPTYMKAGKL
Test [3] addresses T1, Mitogen-activated protein kinase kinase kinase 13 (Homo sapiens) (UniProt O43283).
T1 sequence (whole entry): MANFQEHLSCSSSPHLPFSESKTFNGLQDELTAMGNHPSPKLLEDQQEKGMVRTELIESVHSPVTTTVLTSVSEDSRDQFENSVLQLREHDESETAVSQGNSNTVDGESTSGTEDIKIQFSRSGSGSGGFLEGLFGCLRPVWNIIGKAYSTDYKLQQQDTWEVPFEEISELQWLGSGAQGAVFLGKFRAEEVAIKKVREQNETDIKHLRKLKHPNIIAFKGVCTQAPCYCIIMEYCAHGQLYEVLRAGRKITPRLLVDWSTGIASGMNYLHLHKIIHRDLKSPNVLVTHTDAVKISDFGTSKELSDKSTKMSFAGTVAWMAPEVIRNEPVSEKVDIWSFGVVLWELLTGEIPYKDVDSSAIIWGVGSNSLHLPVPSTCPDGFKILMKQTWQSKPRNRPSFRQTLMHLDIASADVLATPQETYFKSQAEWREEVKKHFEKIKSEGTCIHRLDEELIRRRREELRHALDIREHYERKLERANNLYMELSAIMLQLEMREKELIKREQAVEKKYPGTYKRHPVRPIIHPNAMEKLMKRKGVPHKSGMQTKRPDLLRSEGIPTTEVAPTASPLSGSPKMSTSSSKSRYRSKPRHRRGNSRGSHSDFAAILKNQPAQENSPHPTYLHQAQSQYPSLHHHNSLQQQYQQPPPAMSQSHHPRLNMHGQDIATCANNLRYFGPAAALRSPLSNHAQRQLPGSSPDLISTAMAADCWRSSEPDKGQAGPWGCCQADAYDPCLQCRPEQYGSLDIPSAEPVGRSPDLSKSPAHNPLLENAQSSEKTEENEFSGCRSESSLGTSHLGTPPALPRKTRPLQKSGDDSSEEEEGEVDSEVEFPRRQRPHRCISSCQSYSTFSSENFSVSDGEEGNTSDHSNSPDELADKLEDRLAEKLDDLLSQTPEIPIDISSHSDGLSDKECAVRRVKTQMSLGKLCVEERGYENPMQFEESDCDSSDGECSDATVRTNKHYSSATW
Kind of test: Inhibition of LZK (unknown origin) assessed as residual activity at 100 nM by KINOMEscan analysis relative to control.

Test [4] concerns the target BMP-2-inducible protein kinase (Homo sapiens) (UniProt Q9NSY1). Briefly: Inhibition of BIKE (unknown origin) assessed as residual activity at 100 nM by KINOMEscan analysis relative to control.
Test [5] deals with Mast/stem cell growth factor receptor Kit (Homo sapiens), P10721 [A829P]. Briefly: Inhibition of KIT A829P mutant (unknown origin) assessed as residual activity at 100 nM by KINOMEscan analysis relative to control.
Test [6] has as its system Fibroblast growth factor receptor 3 (Homo sapiens), P22607 [G697C]. Kind of test: Inhibition of FGFR3 G697C mutant (unknown origin) assessed as residual activity at 100 nM by KINOMEscan analysis relative to control.
In test [7] the test system is Phosphatidylinositol 4,5-bisphosphate 3-kinase catalytic subunit alpha isoform (Homo sapiens), P42336 [M1043I]. Kind of test: Inhibition of PIK3CA M1043I mutant (unknown origin) assessed as residual activity at 100 nM by KINOMEscan analysis relative to control.
For test [8], the target named is Ribosomal protein S6 kinase alpha-1 (Homo sapiens) (UniProt Q15418). Briefly: Inhibition of N-terminal RSK1 kinetic domain 1 (unknown origin) assessed as residual activity at 100 nM by KINOMEscan analysis relative to control.
Ribosomal protein S6 kinase alpha-1 (Homo sapiens), sequence (Q15418 whole entry, the tested form may be a part): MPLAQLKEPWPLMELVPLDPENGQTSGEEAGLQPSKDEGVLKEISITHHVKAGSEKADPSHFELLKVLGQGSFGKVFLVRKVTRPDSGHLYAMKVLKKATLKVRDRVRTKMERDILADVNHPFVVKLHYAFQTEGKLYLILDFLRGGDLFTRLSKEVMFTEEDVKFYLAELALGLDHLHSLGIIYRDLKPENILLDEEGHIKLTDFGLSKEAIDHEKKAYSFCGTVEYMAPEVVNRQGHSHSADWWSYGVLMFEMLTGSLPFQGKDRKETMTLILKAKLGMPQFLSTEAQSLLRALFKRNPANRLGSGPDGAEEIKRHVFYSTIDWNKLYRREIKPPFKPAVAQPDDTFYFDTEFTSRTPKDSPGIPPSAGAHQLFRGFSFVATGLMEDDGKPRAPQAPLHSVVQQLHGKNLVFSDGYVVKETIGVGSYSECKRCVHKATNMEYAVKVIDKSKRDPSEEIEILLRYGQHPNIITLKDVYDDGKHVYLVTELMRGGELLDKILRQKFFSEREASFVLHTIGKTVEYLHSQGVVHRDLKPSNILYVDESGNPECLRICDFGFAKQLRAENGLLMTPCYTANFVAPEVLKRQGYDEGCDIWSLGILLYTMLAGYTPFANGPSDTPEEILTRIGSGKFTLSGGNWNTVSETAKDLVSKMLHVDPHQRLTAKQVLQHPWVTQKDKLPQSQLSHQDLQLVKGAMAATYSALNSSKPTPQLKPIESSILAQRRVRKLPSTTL
Test [9] concerns Mast/stem cell growth factor receptor Kit (Homo sapiens), P10721 [D816V]. Briefly: Inhibition of KIT D816V mutant (unknown origin) assessed as residual activity at 100 nM by KINOMEscan analysis relative to control.
The target of test [10] is T2, Myotonin-protein kinase (Homo sapiens) (UniProt Q09013).
T2 sequence (whole entry): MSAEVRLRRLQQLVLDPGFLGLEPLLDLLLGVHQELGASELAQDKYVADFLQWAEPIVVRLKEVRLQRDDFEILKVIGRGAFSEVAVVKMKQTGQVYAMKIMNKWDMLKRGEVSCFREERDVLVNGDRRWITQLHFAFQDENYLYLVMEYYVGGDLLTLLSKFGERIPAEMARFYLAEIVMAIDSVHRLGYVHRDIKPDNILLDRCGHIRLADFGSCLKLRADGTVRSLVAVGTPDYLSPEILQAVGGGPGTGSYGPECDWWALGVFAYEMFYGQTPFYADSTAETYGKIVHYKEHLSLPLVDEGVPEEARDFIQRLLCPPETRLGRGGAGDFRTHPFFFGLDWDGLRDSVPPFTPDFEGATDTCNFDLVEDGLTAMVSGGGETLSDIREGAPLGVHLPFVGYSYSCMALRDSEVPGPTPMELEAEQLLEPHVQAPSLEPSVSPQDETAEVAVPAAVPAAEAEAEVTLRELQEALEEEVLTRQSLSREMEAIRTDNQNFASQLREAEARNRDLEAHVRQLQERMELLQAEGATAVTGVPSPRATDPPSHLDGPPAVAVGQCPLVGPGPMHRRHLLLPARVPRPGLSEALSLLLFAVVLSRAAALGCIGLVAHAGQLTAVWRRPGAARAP
Briefly: Inhibition of DMPK (unknown origin) assessed as residual activity at 100 nM by KINOMEscan analysis relative to control.

In test [11] the target is Casein kinase II subunit alpha' (Homo sapiens) (UniProt P19784). Briefly: Inhibition of CSNK2A2 (unknown origin) assessed as residual activity at 100 nM by KINOMEscan analysis relative to control.
The target of test [12] is Mitogen-activated protein kinase kinase kinase 14 (Homo sapiens) (UniProt Q99558). Kind of test: Inhibition of NIK (unknown origin) assessed as residual activity at 100 nM by KINOMEscan analysis relative to control.
Mitogen-activated protein kinase kinase kinase 14 (Homo sapiens), sequence (Q99558 whole entry, looked up): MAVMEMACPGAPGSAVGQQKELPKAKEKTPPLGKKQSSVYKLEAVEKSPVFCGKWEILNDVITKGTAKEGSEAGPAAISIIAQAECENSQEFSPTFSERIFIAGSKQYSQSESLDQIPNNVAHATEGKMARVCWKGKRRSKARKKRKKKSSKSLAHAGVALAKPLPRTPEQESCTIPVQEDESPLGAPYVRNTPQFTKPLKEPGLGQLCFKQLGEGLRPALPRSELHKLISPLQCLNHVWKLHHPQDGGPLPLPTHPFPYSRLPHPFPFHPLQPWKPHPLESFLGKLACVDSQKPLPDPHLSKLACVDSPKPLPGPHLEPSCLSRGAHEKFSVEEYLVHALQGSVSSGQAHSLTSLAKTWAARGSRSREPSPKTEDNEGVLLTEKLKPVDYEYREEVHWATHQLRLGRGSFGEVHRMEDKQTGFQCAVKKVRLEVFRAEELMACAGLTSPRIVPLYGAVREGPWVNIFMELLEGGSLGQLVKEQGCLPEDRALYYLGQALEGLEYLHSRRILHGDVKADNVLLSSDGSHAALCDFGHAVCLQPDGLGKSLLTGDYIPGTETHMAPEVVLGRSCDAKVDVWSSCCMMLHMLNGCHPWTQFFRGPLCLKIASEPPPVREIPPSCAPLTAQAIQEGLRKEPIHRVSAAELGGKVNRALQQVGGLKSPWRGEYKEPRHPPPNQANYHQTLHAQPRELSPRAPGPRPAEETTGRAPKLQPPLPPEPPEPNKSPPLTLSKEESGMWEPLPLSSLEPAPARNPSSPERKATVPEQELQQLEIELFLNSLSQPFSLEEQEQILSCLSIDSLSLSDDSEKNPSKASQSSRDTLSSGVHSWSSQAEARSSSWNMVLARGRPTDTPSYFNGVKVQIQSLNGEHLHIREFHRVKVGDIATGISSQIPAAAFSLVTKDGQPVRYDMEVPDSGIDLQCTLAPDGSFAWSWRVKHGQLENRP
The target of test [13] is Ephrin type-A receptor 7 (Homo sapiens) (UniProt Q15375). Kind of test: Inhibition of EPHA7 (unknown origin) assessed as residual activity at 100 nM by KINOMEscan analysis relative to control.
Test [14] has as its target Dual specificity protein kinase CLK2 (Homo sapiens) (UniProt P49760). Briefly: Inhibition of CLK2 (unknown origin) assessed as residual activity at 100 nM by KINOMEscan analysis relative to control.

BMP-2-inducible protein kinase (Homo sapiens), sequence (Q9NSY1 whole entry, looked up): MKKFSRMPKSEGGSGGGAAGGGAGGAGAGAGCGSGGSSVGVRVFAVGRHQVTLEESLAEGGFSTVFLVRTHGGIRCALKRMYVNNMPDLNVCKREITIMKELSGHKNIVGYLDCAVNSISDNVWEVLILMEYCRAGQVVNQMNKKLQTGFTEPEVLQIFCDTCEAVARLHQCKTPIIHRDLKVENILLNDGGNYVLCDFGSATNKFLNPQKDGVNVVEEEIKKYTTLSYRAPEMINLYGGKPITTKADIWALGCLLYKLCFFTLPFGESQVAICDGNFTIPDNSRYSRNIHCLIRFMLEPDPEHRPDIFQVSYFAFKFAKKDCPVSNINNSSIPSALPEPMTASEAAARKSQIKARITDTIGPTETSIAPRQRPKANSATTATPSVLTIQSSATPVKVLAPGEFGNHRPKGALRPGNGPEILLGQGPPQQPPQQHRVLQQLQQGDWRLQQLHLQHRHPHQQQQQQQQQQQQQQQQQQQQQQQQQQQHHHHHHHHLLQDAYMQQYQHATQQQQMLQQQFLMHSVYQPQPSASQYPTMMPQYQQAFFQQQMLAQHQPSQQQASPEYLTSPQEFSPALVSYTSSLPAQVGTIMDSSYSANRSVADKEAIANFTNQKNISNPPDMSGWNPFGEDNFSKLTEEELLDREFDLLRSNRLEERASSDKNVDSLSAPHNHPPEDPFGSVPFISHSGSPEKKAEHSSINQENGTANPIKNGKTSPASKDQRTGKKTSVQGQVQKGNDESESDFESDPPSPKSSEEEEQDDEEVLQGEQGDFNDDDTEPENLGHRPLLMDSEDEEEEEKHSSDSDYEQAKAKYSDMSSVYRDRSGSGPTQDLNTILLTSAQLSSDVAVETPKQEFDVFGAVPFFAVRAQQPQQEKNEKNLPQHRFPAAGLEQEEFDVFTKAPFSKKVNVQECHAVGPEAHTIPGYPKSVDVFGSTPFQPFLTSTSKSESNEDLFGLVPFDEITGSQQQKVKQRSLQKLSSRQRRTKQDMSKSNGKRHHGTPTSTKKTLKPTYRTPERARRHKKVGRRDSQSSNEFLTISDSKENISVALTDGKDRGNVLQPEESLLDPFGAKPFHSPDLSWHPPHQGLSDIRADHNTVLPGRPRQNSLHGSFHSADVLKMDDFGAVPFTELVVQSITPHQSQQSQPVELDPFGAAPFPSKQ
Receptor-type tyrosine-protein kinase FLT3 (Homo sapiens), P36888 [UNDEFINED MUTATION], sequence (P36888 whole entry, looked up, stated change not applied): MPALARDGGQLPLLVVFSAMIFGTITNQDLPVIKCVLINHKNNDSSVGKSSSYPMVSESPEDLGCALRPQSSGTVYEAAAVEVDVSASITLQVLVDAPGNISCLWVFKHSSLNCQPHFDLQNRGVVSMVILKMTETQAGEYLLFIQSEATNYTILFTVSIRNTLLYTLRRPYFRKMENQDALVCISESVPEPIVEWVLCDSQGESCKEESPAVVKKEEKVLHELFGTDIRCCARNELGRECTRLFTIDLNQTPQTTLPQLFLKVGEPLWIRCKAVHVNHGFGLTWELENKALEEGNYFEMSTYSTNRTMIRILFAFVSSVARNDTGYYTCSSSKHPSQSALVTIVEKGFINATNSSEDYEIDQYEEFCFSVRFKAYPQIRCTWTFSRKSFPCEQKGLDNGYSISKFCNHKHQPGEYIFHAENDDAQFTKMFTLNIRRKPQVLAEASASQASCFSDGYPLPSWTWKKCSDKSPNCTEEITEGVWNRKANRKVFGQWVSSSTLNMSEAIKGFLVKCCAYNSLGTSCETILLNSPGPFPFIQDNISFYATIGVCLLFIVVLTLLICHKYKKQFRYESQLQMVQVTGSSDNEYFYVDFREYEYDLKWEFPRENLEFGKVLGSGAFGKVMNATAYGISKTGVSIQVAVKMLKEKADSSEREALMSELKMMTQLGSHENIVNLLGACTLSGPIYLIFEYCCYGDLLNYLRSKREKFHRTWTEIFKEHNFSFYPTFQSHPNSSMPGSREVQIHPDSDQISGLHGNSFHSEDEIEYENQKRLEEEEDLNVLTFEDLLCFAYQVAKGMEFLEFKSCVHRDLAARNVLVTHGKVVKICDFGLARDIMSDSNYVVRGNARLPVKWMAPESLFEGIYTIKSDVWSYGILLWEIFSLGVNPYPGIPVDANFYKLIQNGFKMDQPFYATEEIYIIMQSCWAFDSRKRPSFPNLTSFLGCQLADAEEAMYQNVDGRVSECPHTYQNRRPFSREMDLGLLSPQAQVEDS
Dual specificity protein kinase CLK2 (Homo sapiens), sequence (P49760 whole entry, looked up): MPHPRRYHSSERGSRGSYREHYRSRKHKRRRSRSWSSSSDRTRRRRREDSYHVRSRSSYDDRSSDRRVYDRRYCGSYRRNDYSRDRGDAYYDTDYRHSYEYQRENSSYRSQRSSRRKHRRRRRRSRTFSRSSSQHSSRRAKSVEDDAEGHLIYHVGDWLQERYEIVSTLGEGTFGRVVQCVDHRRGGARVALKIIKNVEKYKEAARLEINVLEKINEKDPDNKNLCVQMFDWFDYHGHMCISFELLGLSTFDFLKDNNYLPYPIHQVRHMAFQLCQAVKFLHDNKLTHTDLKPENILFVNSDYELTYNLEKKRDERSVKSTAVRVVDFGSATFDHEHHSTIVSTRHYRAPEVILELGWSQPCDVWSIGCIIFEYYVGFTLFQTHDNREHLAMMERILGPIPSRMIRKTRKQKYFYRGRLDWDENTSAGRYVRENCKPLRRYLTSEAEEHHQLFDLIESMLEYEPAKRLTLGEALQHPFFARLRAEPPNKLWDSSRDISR

Take `COc1cc2nc(C)nc(N[C@H](C)c3cccc(-c4cn[nH]c4)c3)c2cc1OC`: the Activity in test [1] came to 86%.
Take `COc1cc2ncnc(N[C@H](C)c3cccc4ccccc34)c2cc1OC`: the Activity is 49% in test [2]; 82% in [3]; 93% in test [4]; 96% in [5]; 66% in test [6]; 89% in [7]. The Activity was determined as 90% in [8]; 73% in test [9]; 100% in [10]; 87% in test [11]; 81% in [12]; 78% in test [13]. The Activity in test [14] was found to be 100%.
